Measured values published in the NIST ThermoML archive (doi:10.1016/j.jct.2008.05.014).

Test: xn = mol fraction of the nth substance listed
Details: Liquid; for speed of sound: Pulse-echo method

CCCCCCCCCCCC [dodecane] + CCCCCCC
Details | mass density [kg/m3] | speed of sound [m/s]
313.11 K, 75990 kPa, x2 = 0.1014 | – | 1575.8
313.11 K, 75990 kPa, x2 = 0.3007 | – | 1560.1
313.11 K, 75990 kPa, x2 = 0.5003 | – | 1544.4
313.11 K, 75990 kPa, x2 = 0.7007 | – | 1524.1
313.11 K, 91180 kPa, x2 = 0.1014 | – | 1630.7
313.11 K, 91180 kPa, x2 = 0.3007 | – | 1616.4
313.11 K, 91180 kPa, x2 = 0.5003 | – | 1601.4
313.11 K, 101320 kPa, x2 = 0.3007 | – | 1651.1
313.11 K, 101320 kPa, x2 = 0.5003 | – | 1637
313.11 K, 101320 kPa, x2 = 0.7007 | – | 1618.5
313.12 K, 101 kPa, x2 = 0.8 | – | 1108.9
313.12 K, 15200 kPa, x2 = 0.5003 | – | 1261.2
313.12 K, 30390 kPa, x2 = 0.8496 | – | 1297.9
313.12 K, 45590 kPa, x2 = 0.3007 | – | 1435.5
313.12 K, 45590 kPa, x2 = 0.8496 | – | 1375.3
313.12 K, 60790 kPa, x2 = 0.3007 | – | 1500.5
313.12 K, 60790 kPa, x2 = 0.8496 | – | 1444.9
313.12 K, 75990 kPa, x2 = 0.8496 | – | 1508.4
313.12 K, 91180 kPa, x2 = 0.8496 | – | 1566.8
313.12 K, 101320 kPa, x2 = 0.8496 | – | 1604
313.13 K, 101 kPa, x2 = 0.2001 | – | 1199.7
313.13 K, 101 kPa, x2 = 0.5002 | – | 1159.9
313.13 K, 15200 kPa, x2 = 0.8496 | – | 1209.3
313.14 K, 101 kPa, x2 = 0.1007 | – | 1210.7
313.15 K, 101 kPa, x2 = 0 | 734.369 | –
313.15 K, 101 kPa, x2 = 0.0991 | 730.129 | –
313.15 K, 101 kPa, x2 = 0.2008 | 725.372 | –
313.15 K, 101 kPa, x2 = 0.2998 | 720.306 | –
313.15 K, 101 kPa, x2 = 0.3996 | 714.763 | –
313.15 K, 101 kPa, x2 = 0.5 | 708.645 | –
313.15 K, 101 kPa, x2 = 0.6 | 701.955 | –
313.15 K, 101 kPa, x2 = 0.7005 | 694.545 | –
313.15 K, 101 kPa, x2 = 0.7995 | 686.378 | –
313.15 K, 101 kPa, x2 = 0.8486 | 682.014 | –
313.15 K, 101 kPa, x2 = 0.8988 | 677.238 | –
313.15 K, 101 kPa, x2 = 0.9498 | 672.083 | –
313.21 K, 15200 kPa, x2 = 0 | – | 1313.4
313.21 K, 30390 kPa, x2 = 0 | – | 1391.1
313.21 K, 45590 kPa, x2 = 0 | – | 1460.8
313.21 K, 60790 kPa, x2 = 0 | – | 1524.1
313.21 K, 75990 kPa, x2 = 0 | – | 1582.5
313.21 K, 91180 kPa, x2 = 0 | – | 1637.3
313.21 K, 101320 kPa, x2 = 0 | – | 1671.3
318.15 K, 101 kPa, x2 = 0 | 730.715 | –
318.15 K, 101 kPa, x2 = 0.0991 | 726.449 | –
318.15 K, 101 kPa, x2 = 0.2008 | 721.654 | –
318.15 K, 101 kPa, x2 = 0.2998 | 716.534 | –
318.15 K, 101 kPa, x2 = 0.3996 | 710.938 | –
318.15 K, 101 kPa, x2 = 0.5 | 704.756 | –
318.15 K, 101 kPa, x2 = 0.6 | 698 | –
318.15 K, 101 kPa, x2 = 0.7005 | 690.511 | –
318.15 K, 101 kPa, x2 = 0.7995 | 682.231 | –
318.15 K, 101 kPa, x2 = 0.8486 | 677.842 | –
318.15 K, 101 kPa, x2 = 0.8988 | 673.004 | –
318.15 K, 101 kPa, x2 = 0.9498 | 667.78 | –
318.17 K, 30390 kPa, x2 = 0.9391 | – | 1264.9
318.17 K, 60790 kPa, x2 = 0.9391 | – | 1416.7
318.17 K, 75990 kPa, x2 = 0.9391 | – | 1481.5
318.17 K, 91180 kPa, x2 = 0.9391 | – | 1540.9
318.17 K, 101320 kPa, x2 = 0.9391 | – | 1578.8
318.18 K, 15200 kPa, x2 = 0.9391 | – | 1172.9
318.18 K, 30390 kPa, x2 = 0.4999 | – | 1327.8
318.18 K, 45590 kPa, x2 = 0.4999 | – | 1402.2
318.18 K, 45590 kPa, x2 = 0.9391 | – | 1345
318.18 K, 60790 kPa, x2 = 0.4999 | – | 1469.5
318.18 K, 75990 kPa, x2 = 0.4999 | – | 1530.5
318.18 K, 75990 kPa, x2 = 0.97 | – | 1479.1
318.18 K, 91180 kPa, x2 = 0.4999 | – | 1587.8
318.18 K, 101320 kPa, x2 = 0.4999 | – | 1623.8
318.19 K, 15200 kPa, x2 = 0.4999 | – | 1243.6
318.19 K, 15200 kPa, x2 = 0.97 | – | 1168.4
318.19 K, 30390 kPa, x2 = 0.97 | – | 1261.1
318.19 K, 45590 kPa, x2 = 0.8496 | – | 1359.9
318.19 K, 45590 kPa, x2 = 0.97 | – | 1341.7
318.19 K, 60790 kPa, x2 = 0.97 | – | 1413.8
318.19 K, 91180 kPa, x2 = 0.97 | – | 1538.7
318.19 K, 101320 kPa, x2 = 0.1014 | – | 1652.2
318.19 K, 101320 kPa, x2 = 0.97 | – | 1576.7
318.2 K, 15200 kPa, x2 = 0.1014 | – | 1286.7
318.2 K, 15200 kPa, x2 = 0.8496 | – | 1191.3
318.2 K, 30390 kPa, x2 = 0.1014 | – | 1366.6
318.2 K, 30390 kPa, x2 = 0.8496 | – | 1281.3
318.2 K, 45590 kPa, x2 = 0.1014 | – | 1437.8
318.2 K, 60790 kPa, x2 = 0.1014 | – | 1502.5
318.2 K, 60790 kPa, x2 = 0.8496 | – | 1430.4
318.2 K, 75990 kPa, x2 = 0.8496 | – | 1494.5
318.2 K, 76190 kPa, x2 = 0.1014 | – | 1562.6
318.2 K, 91180 kPa, x2 = 0.1014 | – | 1617.7
318.2 K, 91180 kPa, x2 = 0.8496 | – | 1553.3
318.2 K, 101320 kPa, x2 = 0.8496 | – | 1590.8
318.28 K, 101320 kPa, x2 = 0.5003 | – | 1623.8
318.29 K, 15200 kPa, x2 = 0 | – | 1296.2
318.29 K, 15200 kPa, x2 = 0.3007 | – | 1265.2
318.29 K, 15200 kPa, x2 = 0.5003 | – | 1243.2
318.29 K, 30390 kPa, x2 = 0 | – | 1375
318.29 K, 30390 kPa, x2 = 0.5003 | – | 1327.5
318.29 K, 45590 kPa, x2 = 0 | – | 1445.5
318.29 K, 45590 kPa, x2 = 0.3007 | – | 1420.2
318.29 K, 45590 kPa, x2 = 0.5003 | – | 1401.9
318.29 K, 60790 kPa, x2 = 0 | – | 1509.7
318.29 K, 60790 kPa, x2 = 0.3007 | – | 1486
318.29 K, 60790 kPa, x2 = 0.5003 | – | 1469.1
318.29 K, 75990 kPa, x2 = 0.3007 | – | 1546.1
318.29 K, 75990 kPa, x2 = 0.5003 | – | 1530.4
318.29 K, 91180 kPa, x2 = 0 | – | 1624.1
318.29 K, 91180 kPa, x2 = 0.3007 | – | 1602.7
318.29 K, 91180 kPa, x2 = 0.5003 | – | 1587.6
318.29 K, 101320 kPa, x2 = 0 | – | 1658.5
318.29 K, 101320 kPa, x2 = 0.3007 | – | 1638.2
318.3 K, 30390 kPa, x2 = 0.3007 | – | 1347.3
318.3 K, 75990 kPa, x2 = 0 | – | 1568.8
318.3 K, 75990 kPa, x2 = 0.7007 | – | 1510
318.3 K, 101320 kPa, x2 = 0.7007 | – | 1605
318.31 K, 15200 kPa, x2 = 0.7007 | – | 1213.9
318.31 K, 30390 kPa, x2 = 0.7007 | – | 1301.3
318.31 K, 45590 kPa, x2 = 0.7007 | – | 1378
318.31 K, 60790 kPa, x2 = 0.7007 | – | 1447.1
318.31 K, 91180 kPa, x2 = 0.7007 | – | 1568.1
318.37 K, 101 kPa, x2 = 0.6 | – | 1123.2
318.38 K, 101 kPa, x2 = 0.7002 | – | 1105.9
318.38 K, 101 kPa, x2 = 0.8995 | – | 1066.3
318.39 K, 101 kPa, x2 = 0 | – | 1200.9
318.39 K, 101 kPa, x2 = 0.3002 | – | 1167
318.39 K, 101 kPa, x2 = 0.3996 | – | 1153.6
318.4 K, 101 kPa, x2 = 0.1007 | – | 1190.5
318.4 K, 101 kPa, x2 = 0.8 | – | 1087
318.41 K, 101 kPa, x2 = 0.2001 | – | 1179.3
318.41 K, 101 kPa, x2 = 0.5002 | – | 1138.9
